Results from patent US20110124614A1, “Methods And Compositions For The Treatment of Autoimmune Disorders” (priority 2008, published 2011).
Marks after values point to notes of the source that are not given here.

Assays:
Type in all cases: in vivo, mouse
[1] = tested on: PD-L1 and PD-L2 expression; test: PD-L1 and PD-L2 expression on APCs and T cells by flow cytometry (Example VIII); settings: treated WT EAE mice, FIG. 5C
[2] = tested on: T cells of GPR30KO EAE mice; test: Ex vivo T cell proliferation to mMOG-35-55, GPR30KO mice; settings: for T cell proliferation to mMog-35-55: Example IV
Procedure: (§1) Splenocytes and lymph node cells were harvested ex-vivo from G-1 and E2 implanted mice and cultured in a 96-well flat bottom tissue culture plate at 4×10^5 cells/well in stimulation medium in the presence of APC, irradiated (2500 rad) syngenic thymocytes at a ration of 1:10 (T:APCs) wither with or without mMog 35-55 peptide at varying concentrations. The cells were incubated for 3 days at 37° C. in 7% CO2 and pulsed with 0.5 μCi of [^3H] thymidine (Perkin-Elmer, Boston, Mass.) for the final 18 h of incubation. The cells were harvested onto glass fiber filters, and incorporated radioactivity was measured by a liquid scintillation counter. The cpm values (mean±SD) were calculated from triplicate wells. Stimulation index (SI) was calculated by dividing the experimental cpm by the control cpm.

[3] = tested on: EAE in GPR30KO mice; test: EAE clinical scoring, G-1 or E2 pellets, GPR30KO mice (Example IV); settings: for CDI / Daily / Mortality / Onset / Peak / Incidence: GPR30KO
[4] = tested on: splenocytes and lymph node cells of WT EAE mice; test: Ex vivo T cell proliferation to mMOG-35-55, WT mice; settings: for ex vivo T cell proliferation responses to mMog-35-55 peptide: G-1 and E2 implanted WT mice, FIG. 2C
Procedure: as §1

[5] = tested on: EAE in wild-type B6 mice; test: EAE clinical scoring, daily s.c. injection of G-1 or E2, wild-type B6 mice
[6] = tested on: PD-1 expression in CD4^+FoxP3^+ T cells; test: PD-1 expression in CD4+FoxP3+ Treg cells by flow cytometry, WT mice (Example VI); settings: for staining intensity of PD-1 in CD4^+FoxP3^+ cells: spleen of treated WT mice; for staining intensity of PD-1 in CD4^+FoxP3^+ cells / conversion of CD4^+FoxP3^+PD-1^− cells to PD-1^+ cells: FIG. 5B
Procedure: Splenocytes or lymph node cells were harvested from placebo-, E2- or G-1 treated mice after EAE induction as shown in FIG. 2A and stained for CD4, FoxP3 and PD-1. The expression levels of Pd-1 were analyzed by gating on CD4^+FoxP3^+ cells from placebo-, E2, or G-1 treated WT mice. For membrane staining, 1 million cells were stained at 4° C. in the dark with appropriate Ab dilutions in staining buffer (PBS containing 0.5% BSA and 0.02% sodium azide), Intracellular staining for FoxP3 was performed following the protocol recommended by eBioscience. Briefly, 4 million cells were surface stained following standard procedures. After washing, the cells were fixed overnight and washed twice with 0.5 ml of permeabilization buffer. The cells were co-stained for 15 min with FcBlock (Becton Dickinson, Franklin Lake., NJ) and IgG PerCp (eBioscience, San Diego, Calif.) followed 30 min later with fluorescent-labeled antibodies to FoxP3 (eBioscience, San Diego, Calif.) or isotype control. The cells were then washed twice with 2 ml of permeabilization buffer and once with 1 ml of staining buffer, and re-suspended in staining buffer. Flow cytometry data were collected on LSRII and FACSCalibur flow cytometers (BD Bioscience, Franklin Lakes, N.J.), and analyzed using FlowJo software (Tree Star, Ashland, Oreg.). Data represent 50,000-100,000 events unless otherwise noted. […] The histogram overlay compares the MFI of PD-1 in CD4^+FoxP3^+ T cells from different treatment groups. The bar charts show the average percentages of PD-1^+ CD4^+FoxP3^+ T cells and the average MFI of PD-1 in CD4^+FoxP3^+ T cells from all mice in each grip[/*P<0.05 or **P<0.01 compared to placebo control.

[7] = tested on: EAE in wild-type B6 mice; test: EAE clinical scoring, G-1 vs E2 pellets at different doses, wild-type B6 mice (Example III); settings: for CDI / Daily / Mortality / Onset / Peak / Incidence: 34 days
[8] = tested on: EAE in PD-1KO mice; test: EAE clinical scoring, G-1 or E2 pellets, PD-1KO mice (Example IX); settings: for protection against clinical EAE (in words): PD-1KO mice; for CDI / Daily / Mortality / Onset / Peak / Incidence: PD-1KO
[9] = 2.5 mg/60 day E2 pellet, 29 days
[10] = E2 injection, 1 μg/mouse/day s.c., 20 days
[11] = 2.5 mg/60 day E2 pellet, 20 days
[12] = 1.8 mg/40 day G-1 pellet, 29 days
[13] = G-1 injection, 20 μg/mouse/day s.c., 20 days
[14] = 1.8 mg/40 day G-1 pellet, 20 days

SMILES: C[C@]12CC[C@@H]3c4ccc(O)cc4CC[C@H]3[C@@H]1CC[C@@H]2O [E2, 17β estradiol]
- PD-L1 expression on B cells and macrophages [1]: upregulated
- expression of PD-L2 [1]: essentially no effect
- T-cell responses to MOG peptide ([2]; E2 treatment, FIG. 1C): similarly reduced
- T cell proliferation to mMog-35-55 [2]: Neither G-1 nor E2 affected
- protective effect against EAE (in words) ([3]; E2 2.5 mg/60 day pellet, GPR30KO mice): only partially offset by the absence of GPR30
- CDI [3, 9]: 17.2 ± 17.4
- Daily [3, 9]: 3.7 ± 1.3
- Mortality [3, 9]: 0/7
- Onset [3, 9]: 18.0 ± 1.4
- Peak [3, 9]: 2.5 ± 2.3
- Incidence ([3]; 2.5 mg/60 day release E2 pellet, 29 days): 4/7
- T-cell responses to MOG peptide ([4]; E2 treatment, WT mice, FIG. 1C): similarly reduced
- ex vivo T cell proliferation responses to mMog-35-55 peptide [4]: neither G-1 nor E2 treatment significantly altered
- protection against EAE (in words) ([5]; E2 1 μg/mouse/day s.c. injections): partially protective
- CDI [5, 10]: 10.5 ± 13.9
- Daily [5, 10]: 2.3 ± 0.3
- Incidence [5, 10]: 3/8*
- Mortality [5, 10]: 1/8
- Onset [5, 10]: 15.3 ± 1.5
- Peak [5, 10]: 2.3 ± 2.9
- staining intensity of PD-1 in CD4^+FoxP3^+ cells [6]: strongly enhanced
- conversion of CD4^+FoxP3^+PD-1^− cells to PD-1^+ cells ([6]; treated WT mice): converted a majority
- CDI ([7]; 0.025 mg E2 pellet): 37.0 ± 21.6
- Daily ([7]; 0.025 mg E2 pellet): 1.7 ± 1.0
- Mortality ([7]; 0.025 mg E2 pellet): 0/5
- Onset ([7]; 0.025 mg E2 pellet): 14.8 ± 0.5
- Peak ([7]; 0.025 mg E2 pellet): 2.8 ± 1.6
- Incidence ([7]; 0.025 mg/60 day release E2 pellet): 4/5
- CDI ([7]; 0.1 mg E2 pellet): 9.1 ± 14.8
- Daily ([7]; 0.1 mg E2 pellet): 0.3 ± 0.6
- Mortality ([7]; 0.1 mg E2 pellet): 0/10
- Onset ([7]; 0.1 mg E2 pellet): 21.0 ± 6.1
- Peak ([7]; 0.1 mg E2 pellet): 0.8 ± 1.2
- Incidence ([7]; 0.1 mg/60 day release E2 pellet): 3/10**
- CDI ([7]; 2.5 mg E2 pellet): 0**
- Daily ([7]; 2.5 mg E2 pellet): 0**
- Mortality ([7]; 2.5 mg E2 pellet): 0/7
- Peak ([7]; 2.5 mg E2 pellet): 0**
- Incidence ([7]; 2.5 mg/60 day release E2 pellet): 0/7**
- protection from clinical EAE (in words) ([7]; 2.5 mg/60 day release E2 pellets): completely protected
- protection against clinical EAE (in words) ([8]; E2 2.5 mg/60 day pellet): retained partial efficacy
- CDI [8, 11]: 16.4 ± 6.3
- Daily [8, 11]: 1.5 ± 0.6
- Mortality [8, 11]: 0/5
- Onset [8, 11]: 16.4 ± 0.9
- Peak [8, 11]: 4.1 ± 0.8
- Incidence ([8]; 2.5 mg/60 day release E2 pellet, 20 days): 5/5

SMILES: CC(=O)c1ccc2c(c1)C1C=CCC1C(c1cc3c(cc1Br)OCO3)N2 (centres unmarked) [G-1]
- PD-L1 expression on B cells and macrophages [1]: upregulated
- expression of PD-L2 [1]: essentially no effect
- T cell proliferation to mMog-35-55 [2]: Neither G-1 nor E2 affected
- protection against EAE (in words) ([3]; G-1 1.8 mg/40 day pellet, GPR30KO mice): completely ineffective
- CDI [3, 12]: 59.9 ± 13.4
- Daily [3, 12]: 3.0 ± 0.7
- Mortality [3, 12]: 0/8
- Onset [3, 12]: 13.8 ± 1.2
- Peak [3, 12]: 4.5 ± 0.7
- Incidence ([3]; 1.8 mg/40 day release G-1 pellet, concluded 29 days after immunization): 8/8
- ex vivo T cell proliferation responses to mMog-35-55 peptide [4]: neither G-1 nor E2 treatment significantly altered
- protection against EAE (in words) ([5]; G-1 20 μg/mouse/day s.c. injections): partially protective
- CDI [5, 13]: 19.7 ± 11.3
- Daily [5, 13]: 2.7 ± 1.3
- Mortality [5, 13]: 1/8
- Onset [5, 13]: 13.7 ± 1.3
- Peak [5, 13]: 3.7 ± 1.6
- Incidence ([5]; G-1 injection, 20 μg/mouse/day s.c., euthanized 20 days after immunization): 6/8
- staining intensity of PD-1 in CD4^+FoxP3^+ cells [6]: strongly enhanced
- boosting PD-1 expression in CD4^+FoxP3^+ cells, compared with E2 ([6]; treated WT mice): even more potent than E2
- conversion of CD4^+FoxP3^+PD-1^− cells to PD-1^+ cells ([6]; treated WT mice): converted a majority
- CDI ([7]; 0.01 mg G-1 pellet): 43.8 ± 39.9
- Daily ([7]; 0.01 mg G-1 pellet): 1.8 ± 1.6
- Mortality ([7]; 0.01 mg G-1 pellet): 0/6
- Onset ([7]; 0.01 mg G-1 pellet): 13.6 ± 1.6
- Peak ([7]; 0.01 mg G-1 pellet): 3.1 ± 1.7
- Incidence ([7]; 0.01 mg/40 day release G-1 pellet): 5/6
- CDI ([7]; 0.1 mg G-1 pellet): 18.8 ± 28.3
- Daily ([7]; 0.1 mg G-1 pellet): 0.75 ± 1.3
- Mortality ([7]; 0.1 mg G-1 pellet): 0/6
- Onset ([7]; 0.1 mg G-1 pellet): 16.7 ± 2.3
- Peak ([7]; 0.1 mg G-1 pellet): 1.5 ± 1.6
- Incidence ([7]; 0.1 mg/40 day release G-1 pellet): 3/6
- CDI ([7]; 1.8 mg G-1 pellet): 0**
- Daily ([7]; 1.8 mg G-1 pellet): 0**
- Mortality ([7]; 1.8 mg G-1 pellet): 0/7
- Peak ([7]; 1.8 mg G-1 pellet): 0**
- Incidence ([7]; 1.8 mg/40 day release G-1 pellet one week before immunization): 0/7**
- protection from clinical EAE (in words) ([7]; 1.8 mg/40 day release G-1 pellets): completely protected
- clinical EAE (in words), dose dependence ([7]; G-1 pellets 1.8, 0.1 or 0.01 mg/40 day release): delayed and ameliorated EAE in a dose-dependent manner
- protection from clinical EAE compared with E2 ([7]; lower doses of G-1 pellets): less effective than E2
- protection against clinical EAE (in words) ([8]; G-1 1.8 mg/40 day pellet): failed to protect
- CDI [8, 14]: 30.6 ± 9.1
- Daily [8, 14]: 2.7 ± 0.8
- Mortality [8, 14]: 1/5
- Onset [8, 14]: 13.8 ± 1.3
- Peak [8, 14]: 4.8 ± 0.6
- Incidence ([8]; 1.8 mg/40 day release G-1 pellet, euthanized after 20 days): 5/5
